Test results as given in patent publication US8192962B2, “Processes for detecting toxic substances” (Daikin Industries, Ltd., priority 2001, dated 2012).

Tested on: Stress protein genes
Assay: DNA chip mRNA expression in yeast, stress protein genes (Table 6)
Format: cell-based, Saccharomyces cerevisiae S288C
Method in brief: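 S. cerevisiae S288C grown at 25° C in YPD were exposed in log phase for two hours to one toxic chemical at a growth-inhibiting, non-lethal concentration; untreated cells served as control. Poly(A) mRNA was reverse-transcribed with Cy3/Cy5-dUTP and hybridized to a whole-genome yeast DNA chip at 65° C for over 12 hours; values are fluorescence ratios versus untreated.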

O=[N+]([O-])c1cc[n+]([O-])c2ccccc12 [(5), 4-nitroquinolin-N-oxide]
The level of expressed mRNA in the presence of chemical substance/The level of expressed mRNA in the absence of chemical substance (yeast gene YAL005C): 1.2 | The level of expressed mRNA in the presence of chemical substance/The level of expressed mRNA in the absence of chemical substance (yeast gene YAL015C): 1.1 | The level of expressed mRNA in the presence of chemical substance/The level of expressed mRNA in the absence of chemical substance (yeast gene YBL075C): 1.1 | The level of expressed mRNA in the presence of chemical substance/The level of expressed mRNA in the absence of chemical substance (yeast gene YBL093C): 1.0 | The level of expressed mRNA in the presence of chemical substance/The level of expressed mRNA in the absence of chemical substance (yeast gene YBR044C): 1.4 | The level of expressed mRNA in the presence of chemical substance/The level of expressed mRNA in the absence of chemical substance (yeast gene YBR054W): 0.8 | The level of expressed mRNA in the presence of chemical substance/The level of expressed mRNA in the absence of chemical substance (yeast gene YBR067C): 1.1 | The level of expressed mRNA in the presence of chemical substance/The level of expressed mRNA in the absence of chemical substance (yeast gene YBR072W): 1.2 | The level of expressed mRNA in the presence of chemical substance/The level of expressed mRNA in the absence of chemical substance (yeast gene YBR126C): 0.7 | The level of expressed mRNA in the presence of chemical substance/The level of expressed mRNA in the absence of chemical substance (yeast gene YBR169C): 0.8 | The level of expressed mRNA in the presence of chemical substance/The level of expressed mRNA in the absence of chemical substance (yeast gene YCL035C): 1.5 | The level of expressed mRNA in the presence of chemical substance/The level of expressed mRNA in the absence of chemical substance (yeast gene YCR021C): 0.9 | The level of expressed mRNA in the presence of chemical substance/The level of expressed mRNA in the absence of chemical substance (yeast gene YCR060W): 0.8 | The level of expressed mRNA in the presence of chemical substance/The level of expressed mRNA in the absence of chemical substance (yeast gene YCR083W): 1.6 | The level of expressed mRNA in the presence of chemical substance/The level of expressed mRNA in the absence of chemical substance (yeast gene YDL022W): 0.7 | The level of expressed mRNA in the presence of chemical substance/The level of expressed mRNA in the absence of chemical substance (yeast gene YDL025C): 0.6 | The level of expressed mRNA in the presence of chemical substance/The level of expressed mRNA in the absence of chemical substance (yeast gene YDR033W): 1.1 | The level of expressed mRNA in the presence of chemical substance/The level of expressed mRNA in the absence of chemical substance (yeast gene YDR077W): 0.8 | The level of expressed mRNA in the presence of chemical substance/The level of expressed mRNA in the absence of chemical substance (yeast gene YDR098C): 1.5 | The level of expressed mRNA in the presence of chemical substance/The level of expressed mRNA in the absence of chemical substance (yeast gene YDR155C): 0.8 | The level of expressed mRNA in the presence of chemical substance/The level of expressed mRNA in the absence of chemical substance (yeast gene YDR258C): 1.3 | The level of expressed mRNA in the presence of chemical substance/The level of expressed mRNA in the absence of chemical substance (yeast gene YDR293C): 0.6 | The level of expressed mRNA in the presence of chemical substance/The level of expressed mRNA in the absence of chemical substance (yeast gene YDR436W): 0.7 | The level of expressed mRNA in the presence of chemical substance/The level of expressed mRNA in the absence of chemical substance (yeast gene YDR513W): 0.9 | The level of expressed mRNA in the presence of chemical substance/The level of expressed mRNA in the absence of chemical substance (yeast gene YDR519W): 0.7 | The level of expressed mRNA in the presence of chemical substance/The level of expressed mRNA in the absence of chemical substance (yeast gene YEL030W): 0.4 | The level of expressed mRNA in the presence of chemical substance/The level of expressed mRNA in the absence of chemical substance (yeast gene YEL039C): 0.9 | The level of expressed mRNA in the presence of chemical substance/The level of expressed mRNA in the absence of chemical substance (yeast gene YER042W): 1.1 | The level of expressed mRNA in the presence of chemical substance/The level of expressed mRNA in the absence of chemical substance (yeast gene YER057C): 0.8 | The level of expressed mRNA in the presence of chemical substance/The level of expressed mRNA in the absence of chemical substance (yeast gene YER103W): 1.1 | The level of expressed mRNA in the presence of chemical substance/The level of expressed mRNA in the absence of chemical substance (yeast gene YER125W): 1.4 | The level of expressed mRNA in the presence of chemical substance/The level of expressed mRNA in the absence of chemical substance (yeast gene YFL014W): 1.0 | The level of expressed mRNA in the presence of chemical substance/The level of expressed mRNA in the absence of chemical substance (yeast gene YFL016C): 1.3 | The level of expressed mRNA in the presence of chemical substance/The level of expressed mRNA in the absence of chemical substance (yeast gene YFL020C): 1.1 | The level of expressed mRNA in the presence of chemical substance/The level of expressed mRNA in the absence of chemical substance (yeast gene YFR052W): 1.4 | The level of expressed mRNA in the presence of chemical substance/The level of expressed mRNA in the absence of chemical substance (yeast gene YGL073W): 1.7 | The level of expressed mRNA in the presence of chemical substance/The level of expressed mRNA in the absence of chemical substance (yeast gene YGL115W): 1.2 | The level of expressed mRNA in the presence of chemical substance/The level of expressed mRNA in the absence of chemical substance (yeast gene YGL181W): 1.1 | The level of expressed mRNA in the presence of chemical substance/The level of expressed mRNA in the absence of chemical substance (yeast gene YGR088W): 1.0 | The level of expressed mRNA in the presence of chemical substance/The level of expressed mRNA in the absence of chemical substance (yeast gene YHL028W): 1.1 | The level of expressed mRNA in the presence of chemical substance/The level of expressed mRNA in the absence of chemical substance (yeast gene YHL046C): 0.9 | The level of expressed mRNA in the presence of chemical substance/The level of expressed mRNA in the absence of chemical substance (yeast gene YHR030C): 1.8 | The level of expressed mRNA in the presence of chemical substance/The level of expressed mRNA in the absence of chemical substance (yeast gene YHR057C): 1.3 | The level of expressed mRNA in the presence of chemical substance/The level of expressed mRNA in the absence of chemical substance (yeast gene YHR104W): 1.1 | The level of expressed mRNA in the presence of chemical substance/The level of expressed mRNA in the absence of chemical substance (yeast gene YIL011W): 1.1 | The level of expressed mRNA in the presence of chemical substance/The level of expressed mRNA in the absence of chemical substance (yeast gene YIL033C): 0.7 | The level of expressed mRNA in the presence of chemical substance/The level of expressed mRNA in the absence of chemical substance (yeast gene YIR037W): 0.6 | The level of expressed mRNA in the presence of chemical substance/The level of expressed mRNA in the absence of chemical substance (yeast gene YIR038C): 0.7 | The level of expressed mRNA in the presence of chemical substance/The level of expressed mRNA in the absence of chemical substance (yeast gene YJL128C): 1.2 | The level of expressed mRNA in the presence of chemical substance/The level of expressed mRNA in the absence of chemical substance (yeast gene YJL158C): 1.4 | The level of expressed mRNA in the presence of chemical substance/The level of expressed mRNA in the absence of chemical substance (yeast gene YJL159W): 1.0 | The level of expressed mRNA in the presence of chemical substance/The level of expressed mRNA in the absence of chemical substance (yeast gene YJL165C): 1.1 | The level of expressed mRNA in the presence of chemical substance/The level of expressed mRNA in the absence of chemical substance (yeast gene YJR045C): 0.5 | The level of expressed mRNA in the presence of chemical substance/The level of expressed mRNA in the absence of chemical substance (yeast gene YJR090C): 1.2 | The level of expressed mRNA in the presence of chemical substance/The level of expressed mRNA in the absence of chemical substance (yeast gene YKL161C): 1.4 | The level of expressed mRNA in the presence of chemical substance/The level of expressed mRNA in the absence of chemical substance (yeast gene YKL163W): 0.6 | The level of expressed mRNA in the presence of chemical substance/The level of expressed mRNA in the absence of chemical substance (yeast gene YKL164C): 1.1 | The level of expressed mRNA in the presence of chemical substance/The level of expressed mRNA in the absence of chemical substance (yeast gene YKL210W): 0.8 | The level of expressed mRNA in the presence of chemical substance/The level of expressed mRNA in the absence of chemical substance (yeast gene YKR053C): 1.0 | The level of expressed mRNA in the presence of chemical substance/The level of expressed mRNA in the absence of chemical substance (yeast gene YLL024C): 0.7 | The level of expressed mRNA in the presence of chemical substance/The level of expressed mRNA in the absence of chemical substance (yeast gene YLL026W): 0.9 | The level of expressed mRNA in the presence of chemical substance/The level of expressed mRNA in the absence of chemical substance (yeast gene YLL039C): 0.9 | The level of expressed mRNA in the presence of chemical substance/The level of expressed mRNA in the absence of chemical substance (yeast gene YLL060C): 0.9 | The level of expressed mRNA in the presence of chemical substance/The level of expressed mRNA in the absence of chemical substance (yeast gene YLR006C): 1.6 | The level of expressed mRNA in the presence of chemical substance/The level of expressed mRNA in the absence of chemical substance (yeast gene YLR109W): 1.3 | The level of expressed mRNA in the presence of chemical substance/The level of expressed mRNA in the absence of chemical substance (yeast gene YLR259C): 1.1 | The level of expressed mRNA in the presence of chemical substance/The level of expressed mRNA in the absence of chemical substance (yeast gene YML007W): 1.0 | The level of expressed mRNA in the presence of chemical substance/The level of expressed mRNA in the absence of chemical substance (yeast gene YML070W): 1.4 | The level of expressed mRNA in the presence of chemical substance/The level of expressed mRNA in the absence of chemical substance (yeast gene YMR021C): 1.6 | The level of expressed mRNA in the presence of chemical substance/The level of expressed mRNA in the absence of chemical substance (yeast gene YMR173W): 1.1 | The level of expressed mRNA in the presence of chemical substance/The level of expressed mRNA in the absence of chemical substance (yeast gene YMR186W): 1.3 | The level of expressed mRNA in the presence of chemical substance/The level of expressed mRNA in the absence of chemical substance (yeast gene YNL064C): 0.9 | The level of expressed mRNA in the presence of chemical substance/The level of expressed mRNA in the absence of chemical substance (yeast gene YNL160W): 1.3 | The level of expressed mRNA in the presence of chemical substance/The level of expressed mRNA in the absence of chemical substance (yeast gene YNL241C): 0.8 | The level of expressed mRNA in the presence of chemical substance/The level of expressed mRNA in the absence of chemical substance (yeast gene YNR076W): 1.2 | The level of expressed mRNA in the presence of chemical substance/The level of expressed mRNA in the absence of chemical substance (yeast gene YOL064C): 0.9 | The level of expressed mRNA in the presence of chemical substance/The level of expressed mRNA in the absence of chemical substance (yeast gene YOL161C): 0.9 | The level of expressed mRNA in the presence of chemical substance/The level of expressed mRNA in the absence of chemical substance (yeast gene YOR008C): 1.4 | The level of expressed mRNA in the presence of chemical substance/The level of expressed mRNA in the absence of chemical substance (yeast gene YOR009W): 0.8 | The level of expressed mRNA in the presence of chemical substance/The level of expressed mRNA in the absence of chemical substance (yeast gene YOR010C): 1.2 | The level of expressed mRNA in the presence of chemical substance/The level of expressed mRNA in the absence of chemical substance (yeast gene YOR027W): 1.0 | The level of expressed mRNA in the presence of chemical substance/The level of expressed mRNA in the absence of chemical substance (yeast gene YOR208W): 1.4 | The level of expressed mRNA in the presence of chemical substance/The level of expressed mRNA in the absence of chemical substance (yeast gene YPL059W): 1.2 | The level of expressed mRNA in the presence of chemical substance/The level of expressed mRNA in the absence of chemical substance (yeast gene YPL106C): 1.2 | The level of expressed mRNA in the presence of chemical substance/The level of expressed mRNA in the absence of chemical substance (yeast gene YPL140C): 0.8 | The level of expressed mRNA in the presence of chemical substance/The level of expressed mRNA in the absence of chemical substance (yeast gene YPL194W): 1.3 | The level of expressed mRNA in the presence of chemical substance/The level of expressed mRNA in the absence of chemical substance (yeast gene YPL223C): 0.9 | The level of expressed mRNA in the presence of chemical substance/The level of expressed mRNA in the absence of chemical substance (yeast gene YPL240C): 1.3 | The level of expressed mRNA in the presence of chemical substance/The level of expressed mRNA in the absence of chemical substance (yeast gene YPR005C): 1.0 | The level of expressed mRNA in the presence of chemical substance/The level of expressed mRNA in the absence of chemical substance (yeast gene YPR026W): 0.8
